Structures can show the parent of a compound that is named as a salt.

We go through three compounds from patent US7868188B2, “5-heteroaryl thiazoles and their use as PI3K inhibitors” (AstraZeneca AB, priority 2004, dated 2011).

The target of the assay is T1, p110α Type Ia human PI3K (Homo sapiens, UniProt P42336).
T1 construct: full length DNA of each of the p110α, p110β and p110δ Type Ia human PI3K p110 isoforms; 6-His; made in house; host or cells: baculovirus expression system (Sf9 is named only for PI3Kγ)
T1 sequence (P42336 whole entry, canonical isoform): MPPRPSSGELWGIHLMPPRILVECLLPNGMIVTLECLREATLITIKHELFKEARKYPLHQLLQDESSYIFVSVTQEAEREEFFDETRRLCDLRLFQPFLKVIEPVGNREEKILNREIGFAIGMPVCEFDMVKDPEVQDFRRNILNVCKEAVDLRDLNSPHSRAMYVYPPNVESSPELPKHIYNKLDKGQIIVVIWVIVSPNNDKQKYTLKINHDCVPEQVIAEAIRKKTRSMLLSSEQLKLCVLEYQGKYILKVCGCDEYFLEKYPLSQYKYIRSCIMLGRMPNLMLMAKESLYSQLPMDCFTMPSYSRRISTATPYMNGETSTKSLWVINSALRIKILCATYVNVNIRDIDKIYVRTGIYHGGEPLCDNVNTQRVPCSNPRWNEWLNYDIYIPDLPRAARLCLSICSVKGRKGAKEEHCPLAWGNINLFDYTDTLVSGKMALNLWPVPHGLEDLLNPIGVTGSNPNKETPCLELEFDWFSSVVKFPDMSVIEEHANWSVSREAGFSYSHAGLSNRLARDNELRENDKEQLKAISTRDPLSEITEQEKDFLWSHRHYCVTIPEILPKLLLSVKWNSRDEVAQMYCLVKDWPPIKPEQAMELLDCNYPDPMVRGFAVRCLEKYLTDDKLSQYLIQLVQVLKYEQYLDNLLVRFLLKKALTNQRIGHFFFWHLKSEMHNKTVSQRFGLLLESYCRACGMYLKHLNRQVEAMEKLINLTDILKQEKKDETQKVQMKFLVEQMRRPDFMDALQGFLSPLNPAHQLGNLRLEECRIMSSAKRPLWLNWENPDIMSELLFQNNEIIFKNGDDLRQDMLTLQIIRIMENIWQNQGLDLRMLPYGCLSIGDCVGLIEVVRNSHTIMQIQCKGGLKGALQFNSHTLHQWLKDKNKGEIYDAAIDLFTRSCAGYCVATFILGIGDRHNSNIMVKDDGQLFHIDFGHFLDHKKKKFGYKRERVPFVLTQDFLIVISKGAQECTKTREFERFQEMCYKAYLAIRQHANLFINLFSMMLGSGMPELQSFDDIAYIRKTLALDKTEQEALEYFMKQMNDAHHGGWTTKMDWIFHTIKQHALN
T1 sequence (P27986 whole entry partner, canonical isoform): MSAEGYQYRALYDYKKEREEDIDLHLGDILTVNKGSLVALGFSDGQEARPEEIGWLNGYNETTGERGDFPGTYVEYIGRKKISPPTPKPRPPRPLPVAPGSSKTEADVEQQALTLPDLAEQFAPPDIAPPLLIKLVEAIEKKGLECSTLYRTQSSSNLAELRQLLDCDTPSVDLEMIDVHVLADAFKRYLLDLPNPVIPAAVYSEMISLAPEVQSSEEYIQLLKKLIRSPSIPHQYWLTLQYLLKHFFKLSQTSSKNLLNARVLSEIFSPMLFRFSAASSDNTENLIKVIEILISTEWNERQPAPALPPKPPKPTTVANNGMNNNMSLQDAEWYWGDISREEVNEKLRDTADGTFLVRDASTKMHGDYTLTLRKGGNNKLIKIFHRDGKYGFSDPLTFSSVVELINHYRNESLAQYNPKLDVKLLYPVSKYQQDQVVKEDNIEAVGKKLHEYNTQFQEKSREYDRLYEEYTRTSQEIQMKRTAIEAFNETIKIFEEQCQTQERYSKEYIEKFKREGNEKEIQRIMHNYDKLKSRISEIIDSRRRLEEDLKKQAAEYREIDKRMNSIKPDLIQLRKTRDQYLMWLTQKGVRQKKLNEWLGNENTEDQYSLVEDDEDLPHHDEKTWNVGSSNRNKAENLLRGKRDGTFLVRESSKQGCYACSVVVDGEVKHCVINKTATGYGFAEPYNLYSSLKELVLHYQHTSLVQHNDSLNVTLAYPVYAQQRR
As to the kind of experiment: Test (a) In Vitro PI3K Enzyme Assay (AlphaScreen). It counts as biochemical. Particulars: read-out: IC50 versus p110α PI3K. An excerpt:
The assay used AlphaScreen technology (Gray et al., Analytical Biochemistry, 2003, 313: 234-245) to determine the ability of test compounds to inhibit phosphorylation by recombinant Type I PI3K enzymes of the lipid PI(4,5)P2.
DNA fragments encoding human PI3K catalytic and regulatory subunits were isolated from cDNA libraries using standard molecular biology and PCR cloning techniques. The selected DNA fragments were used to generate baculovirus expression vectors. In particular, full length DNA of each of the p110α, p110β and p110δ Type Ia human PI3K p110 isoforms (EMBL Accession Nos. HSU79143, S67334, Y10055 for p110α, p110β and p110δ respectively) were sub-cloned into a pDEST10 vector (Invitrogen Limited, Fountain Drive, Paisley, UK). The vector is a Gateway-adapted version of Fastbac1 containing a 6-His epitope tag. A truncated form of Type Ib human PI3K p110γ isoform corresponding to amino acid residues 144-1102 (EMBL Accession No. X8336A) and the full length human p85α regulatory subunit (EMBL Accession No. HSP13KIN) were also sub-cloned into pFastBac1 vector containing a 6-His epitope tag. The Type Ia p110 constructs were co-expressed with the p85α regulatory subunit. Following expression in the baculovirus system using standard baculovirus expression techniques, expressed proteins were purified using the His epitope tag using standard purification techniques.
DNA corresponding to amino acids 263 to 380 of human general receptor for phosphoinositides (Grp1) PH domain was isolated from a cDNA library using standard molecular biology and PCR cloning techniques. The resultant DNA fragment was sub-cloned into a pGEX 4T1 E. coli expression vector containing a GST epitope tag (Amersham Pharmacia Biotech, Rainham, Essex, UK) as described by Gray et al., Analytical Biochemistry, 2003, 313: 234-245). The GST-tagged Grp1 PH domain was expressed and purified using standard techniques.
Test compounds were prepared as […] stock solutions in DMSO and diluted into water as required to give a range of final assay concentrations. Aliquots (2 μl) of each compound dilution were placed into a well of a Greiner 384-well low volume (LV) white polystyrene plate (Greiner Bio-one, Brunel Way, Stonehouse, Gloucestershire, UK Catalogue No. 784075). […]
Biotinylated-DiC8-PI(3,4,5)P3 (50 nM; Cell Signals Inc., Catalogue No. 107), recombinant purified GST-Grp1 PH protein (2.5 nM) and AlphaScreen Anti-GST donor and acceptor beads (100 ng; Packard Bioscience Limited, Station Road, Pangbourne, Berkshire, UK, Catalogue No. 6760603M) were added and the assay plates were left for about 5 to 20 hours at room temperature in the dark. The resultant signals arising from laser light excitation at 680 nm were read using a Packard AlphaQuest instrument. […]
Turning to `CC(=O)Nc1nc(C)c(-c2cnc(Cl)c(NCc3ccc(F)cc3)c2)s1` [Compound No. 3 within Example 79, N-{5-[6-Chloro-5-(4-fluorobenzylamino)pyridin-3-yl]-4-methyl-1,3-thiazol-2-yl}acetamide], the half-inhibitory concentration (IC50) is ~200 nM.
In the case of `CC(=O)Nc1nc(C)c(-c2cnc(Cl)c(S(=O)(=O)Nc3ccccc3)c2)s1` [Compound No. 4 within Example 73, N-{5-[6-Chloro-5-(N-phenylsulfamoyl)pyridin-3-yl]-4-methyl-1,3-thiazol-2-yl]acetamide] it was ~30 nM.
Next, `CC(=O)Nc1nc(C)c(-c2cnc(Cl)c(NS(C)(=O)=O)c2)s1` [Example 28, N-[5-(6-Chloro-5-methylsulfonylaminopyridin-3-yl)-4-methyl-1,3-thiazol-2-yl]acetamide trifluoroacetate]: ~10 nM.
